Reference: patent US10815219B2, “2,4-diaminoquinazoline derivatives for inhibiting endoplasmic reticulum (ER) stress” (The Board of Regents of the University of Oklahoma, priority 2017, dated 2020)
Like-named read-outs stand apart in the source and are kept apart here.

Tests used:
[1] = system: INS-1 cells; assay: MTT viability assay, INS-1 cells treated with Tm; type: cell-based, rat; settings: Tm 0.1 μg/mL, 72 h, FIG. 3A
Source text: (§1) To rule out the possibility of an ATP-specific (rather than viability) effect of the compounds, we used the MTT assay, which measures the activity of NAD(P)H-dependent cellular oxidoreductase enzymes, as an orthogonal method to measure cell viability. […] To confirm that the protective effect of 9c on β cells is not INS-1 cell-specific, another β cell line, βTC6, was used. […] To determine whether the protective effect of 9c on β cells is specific to Tm-induced stress, we used another ER stressor, BFA, which inhibits a key guanine nucleotide exchange factor essential for the transport of proteins from the ER to the Golgi, to treat INS-1 cells.
(§2) INS-1 cells or βTC6 cells were seeded at 3×10^3 cells/well in a 384-well plate and treated with compounds at the indicated concentrations. After 3 d treatment, the medium was aspirated and 10 μl of MTT reagent (Cayman Chemical, MI, USA, prepared according to manufacturer's instruction) to each well was added and mixed gently for one minute on an orbital shaker. The cells were then incubated for three hours at 37° C. in a CO2 incubator. After incubation, add 100 μl of crystal dissolving solution to each well, and incubate for 4 hours in a 37° C. CO2 incubator. Viability will be measured for the absorbance to each sample at 570 nm using EnVision multilabel plate reader (PerkinElmer, MA, USA).

[2] = system: ATF4 and CHOP protein; assay: Western blotting of ATF4 and CHOP in Tm-treated INS-1 cells; type: cell-based, rat; settings: Tm 0.1 μg/mL, 9c 20 μM, FIG. 8C
Source text: We then determined the effect of 9c on the activation of the PERK pathway in β cells under ER stress. Activated PERK phosphorylates eukaryotic translation initiator factor 2a (eIF2α), which in turn attenuates general protein synthesis to relieve ER load. EIF2α phosphorylation also allows the selective translation of ATF4 mRNA, which encodes a transcription factor that induces the expression of the pro-apoptotic gene C/EBP-homologous protein (CHOP). Thus, we used ATF4 and CHOP expression levels as markers of PERK pathway activation. […] Together, our results that 9c inhibited the ER stress-mediated activation of all three UPR pathways indicate that 9c protects β cell survival by alleviating ER stress.
INS-1 cells were seeded in 60-mm dishes at 8×10^5 cells/dish and treated for the indicated times. Cells were then washed with PBS and lysed with lysis buffer (Cell Signaling Technology, Danvers, Mass.) containing EDTA (Thermo, IL) and phosphatase inhibitors (Thermo). Aliquots of 20 μg total protein were separated on 7% SDS-PAGE gels (Life Technologies) and transferred to PVDF membranes (Life Technologies). The membranes were probed with primary antibodies followed by the appropriate HRP-conjugated secondary antibodies (goat anti-rabbit IgG and goat anti-mouse IgG, 1:3000; Santa Cruz Biotechnology, CA, USA). Blots were then developed. […]

[3] = system: PDX1 and MafA mRNA; assay: qRT-PCR of β cell transcription factors in Tm-treated INS-1 cells; type: cell-based, rat; settings: Tm 0.1 μg/mL, 9c 20 μM, 24 h, FIG. 5C, D
Source text: (§3) ER stress also impairs the most important function of β cells: the biosynthesis and secretion of insulin. Multiple steps of insulin synthesis and secretion are impaired under ER stress; they include insulin gene transcription, insulin mRNA stability, protein translation, and the insulin protein secretory process. First, we examined whether compound 9c could rescue Tm-suppressed mRNA levels of insulin genes. […] Second, we examined whether compound 9c affects the expression of β cell transcription factors PDX1 and MafA, which control β cell identity and the expression of insulin genes. Chronic exposure to supraphysiologic concentrations of glucose and its associated ER stress cause the down-regulation of expression of PDX1 and MafA. Consistent with this notion, Tm decreased the levels of PDX1 and MafA mRNA expression levels in INS-1 cells. […] Next, we explored whether compound 9c re-establishes Tm-impaired glucose-stimulated insulin secretion (GSIS).
(§4) INS-1 cells were seeded at 4×10^5 cells/well in 6-well plates and treated with compounds for the indicated times. Total RNA was extracted using TRIzol reagent (Invitrogen, Carlsbad, Calif.) according to the manufacturer's protocol, and 2 μg of total RNA was reverse transcribed using a Superscript kit (Invitrogen). […]

[4] = system: INS1 and INS2 mRNA; assay: qRT-PCR of insulin genes in Tm-treated INS-1 cells; type: cell-based, rat; settings: Tm 0.1 μg/mL, 9c 20 μM, 24 h, FIG. 5A, B
Source text: as §3, §4

[5] = system: βTC6 cells; assay: βTC6 cell viability after Tm treatment (MTT); type: cell-based; settings: Tm 0.25 μg/mL, 72 h, FIG. 3C
Source text: as §1, §2

[6] = system: INS-1 cells; assay: INS-1 cell survival after Tm treatment (CellTiter-Glo, intracellular ATP); type: cell-based, rat; settings: for EC50: Rattus norvegicus, read-out: EC50
Procedure: A structure-activity-relationship (SAR) study was thus conducted to improve the weak potency of lead compound 5a. Newly synthesized or commercially available compounds were tested for their β-cell-protective activity against ER stress in rat INS-1 β-cells. […] Maximum activity value in the tables is reported as % rescue from Tm (0.1 μg/mL)-induced reduction of cell viability. The values for Tm treatment alone and control (DMSO, without Tm) treatment are designated as 0% and 100%, respectively in all tables. EC50 values (the concentrations that reach half-maximal activity) for INS-1 cell viability were calculated with GraphPad Prism from the data of ten 2-fold serial titration points in all tables. All experiments were performed in triplicate in all tables.
INS-1 cells or βTC6 cells were seeded at 3×10^3 cells/well in a 384-well plate and treated with compounds at the indicated concentrations. After 3 d treatment, the medium was aspirated and 20 μL/well of CellTiter-Glo reagent (Promega, WI, USA) was added for the detection of intracellular ATP levels. Cell viability was measured with an EnVision multilabel plate reader (PerkinElmer, MA, USA).

COc1ccc(CNc2nc(N3CCCCC3CO)nc3ccccc23)cc1 (racemic) [Compound 9c, (1-(4-((4-methoxybenzyl)amino)quinazolin-2-yl)piperidin-2-yl)methanol]
viability of INS-1 cells (MTT) [1]: increase in viability of INS-1 cells | ATF4 and CHOP protein levels [2]: decreased ATF4 and CHOP protein levels | PDX1 and MafA mRNA expression levels [3]: almost completely reversed this decrease to normal levels | mRNA levels of insulin genes INS1 and INS2 [4]: completely rescued | viability of βTC6 cells (MTT, NAD(P)H-dependent oxidoreductase activity) [5]: rescued the viability of βTC6 cells in a dose-dependent manner | Maximum activity ([6]; % rescue from Tm (0.1 μg/mL)-induced reduction of cell viability, 72 h, Tm alone 0%, DMSO 100%, Table 3): 80.4% | maximum activity (rescue) ([6]; % rescue from Tm-induced reduction of INS-1 cell viability): 80% | concentration exhibiting the maximum protective activity ([6]; INS-1 cells, Tm 0.1 μg/mL, 72 h, based on dose-dependent curves): 5 µM | EC50 ([6]; INS1, 72 h, INS-1 cell viability, Tm 0.1 μg/mL, 72 h, ten 2-fold serial titration points, Table 3): 560 ± 180 nM | EC50 ([6]; INS1, running text, INS-1 cell viability in presence of Tm): 560 nM
